Laboratory results published in patent US8329702B2, “Heterocycles useful as modulators of ion channels” (Vertex Pharmaceuticals Incorporated, priority 2005, dated 2012).

Tested on: not given
Assay: not given
Conditions: neuropathic pain, modest efficacy; cited from earlier work

| Compound | patients in which it works [%] |
| --- | --- |
| NCC1(CC(=O)O)CCCCC1 [Gabapentin] | 60 |

Target: T1, NaV1.8 (Homo sapiens, UniProt Q9Y5Y9)
Assay: not given
Conditions: read-out: TTX IC50; cited from earlier work

T1 sequence (Q9Y5Y9 whole entry, looked up): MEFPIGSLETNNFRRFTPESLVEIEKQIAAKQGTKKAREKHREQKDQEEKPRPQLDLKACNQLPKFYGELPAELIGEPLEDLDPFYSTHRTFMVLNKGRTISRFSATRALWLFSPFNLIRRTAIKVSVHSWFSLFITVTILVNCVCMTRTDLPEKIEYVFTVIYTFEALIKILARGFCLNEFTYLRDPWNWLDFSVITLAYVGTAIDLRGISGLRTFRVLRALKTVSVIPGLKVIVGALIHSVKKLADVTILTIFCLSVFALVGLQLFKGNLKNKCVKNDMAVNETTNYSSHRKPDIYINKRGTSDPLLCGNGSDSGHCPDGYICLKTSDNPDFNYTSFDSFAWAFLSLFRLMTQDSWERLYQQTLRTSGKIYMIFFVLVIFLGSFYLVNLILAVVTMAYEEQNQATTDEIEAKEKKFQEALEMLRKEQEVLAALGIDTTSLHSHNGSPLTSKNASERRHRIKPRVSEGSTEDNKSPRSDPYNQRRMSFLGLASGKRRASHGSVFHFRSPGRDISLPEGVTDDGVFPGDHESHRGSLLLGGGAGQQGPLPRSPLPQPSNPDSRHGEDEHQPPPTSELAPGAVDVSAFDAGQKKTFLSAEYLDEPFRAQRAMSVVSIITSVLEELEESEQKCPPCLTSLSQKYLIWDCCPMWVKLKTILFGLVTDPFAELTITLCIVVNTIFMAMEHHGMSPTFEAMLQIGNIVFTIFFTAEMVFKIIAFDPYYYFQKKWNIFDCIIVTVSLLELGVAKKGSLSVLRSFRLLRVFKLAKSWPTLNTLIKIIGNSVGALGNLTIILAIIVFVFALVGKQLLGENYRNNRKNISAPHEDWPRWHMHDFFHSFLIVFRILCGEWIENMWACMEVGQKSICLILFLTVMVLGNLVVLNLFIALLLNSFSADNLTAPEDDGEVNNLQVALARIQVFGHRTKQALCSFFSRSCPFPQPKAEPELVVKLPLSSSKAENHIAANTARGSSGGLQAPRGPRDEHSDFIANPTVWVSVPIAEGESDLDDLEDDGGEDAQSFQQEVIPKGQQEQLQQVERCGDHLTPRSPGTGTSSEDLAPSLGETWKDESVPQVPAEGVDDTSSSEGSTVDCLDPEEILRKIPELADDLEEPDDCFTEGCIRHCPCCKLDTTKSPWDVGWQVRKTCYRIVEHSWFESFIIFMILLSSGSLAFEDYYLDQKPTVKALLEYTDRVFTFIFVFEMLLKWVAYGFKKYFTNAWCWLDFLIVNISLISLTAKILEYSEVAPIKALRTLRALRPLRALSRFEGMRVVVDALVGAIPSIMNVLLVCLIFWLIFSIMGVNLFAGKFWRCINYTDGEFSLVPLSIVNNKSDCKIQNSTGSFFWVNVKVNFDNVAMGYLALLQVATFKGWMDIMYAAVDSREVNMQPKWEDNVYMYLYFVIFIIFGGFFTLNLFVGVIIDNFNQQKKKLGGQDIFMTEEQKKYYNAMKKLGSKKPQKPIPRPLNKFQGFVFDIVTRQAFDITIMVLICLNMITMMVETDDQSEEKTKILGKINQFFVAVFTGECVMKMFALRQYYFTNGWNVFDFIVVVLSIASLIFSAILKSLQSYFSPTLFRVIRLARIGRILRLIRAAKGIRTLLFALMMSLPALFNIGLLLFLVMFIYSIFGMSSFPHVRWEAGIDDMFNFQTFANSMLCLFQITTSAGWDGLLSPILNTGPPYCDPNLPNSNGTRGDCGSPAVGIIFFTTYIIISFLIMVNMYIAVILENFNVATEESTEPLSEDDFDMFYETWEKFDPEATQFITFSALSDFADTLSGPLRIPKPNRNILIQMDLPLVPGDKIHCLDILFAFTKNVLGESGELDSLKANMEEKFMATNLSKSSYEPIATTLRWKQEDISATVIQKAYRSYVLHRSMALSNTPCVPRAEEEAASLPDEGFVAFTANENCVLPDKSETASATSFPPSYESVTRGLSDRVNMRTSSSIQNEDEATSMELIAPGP

| Compound | IC50 [µM] |
| --- | --- |
| NC1=N[C@H](O)[C@H]2[C@H]3O[C@]4(O)O[C@@H]([C@@H](O)[C@@]2(N1)[C@@H]4O)[C@]3(O)CO [TTX, tetrodotoxin] | > 50 |

Target: T1, NaV1.8
Assay: Activity against NaV1.8 channel (Table 3)
Assay type: cell-based
Conditions: not given
Method: Compounds of the invention are useful as antagonists of voltage-gated sodium ion channels. Antagonist properties of test compounds were assessed as follows. Cells expressing the NaV of interest were placed into microtiter plates. After an incubation period, the cells were stained with fluorescent dyes sensitive to the transmembrane potential. The test compounds were added to the microtiter plate. The cells were stimulated with either a chemical or electrical means to evoke a NaV dependent membrane potential change from unblocked channels, which was detected and measured with trans-membrane potential-sensitive dyes. Antagonists were detected as a decreased membrane potential response to the stimulus. The optical membrane potential assay utilized voltage-sensitive FRET sensors described by Gonzalez and Tsien (See, Gonzalez, J. E. and R. Y. Tsien (1995) “Voltage sensing by fluorescence resonance energy transfer in single cells” Biophys J 69(4): 1272-80, and Gonzalez, J. E. and R. Y. Tsien (1997) “Improved indicators of cell membrane potential that use fluorescence resonance energy transfer” Chem Biol 4(4): 269-77) in combination with instrumentation for measuring fluorescence changes such as the Voltage/Ion Probe Reader (VIPR®) (See, Gonzalez, J. E., K. Oades, et al. (1999) “Cell-based assays and instrumentation for screening ion-channel targets” Drug Discov Today 4(9): 431-439).
24 hours before the assay on VIPR, CHO cells endogenously expressing a NaV1.2 type voltage-gated NaV are seeded in 96-well poly-lysine coated plates at 60,000 cells per well. Other subtypes are performed in an analogous mode in a cell line expressing the NaV of interest.
The following is an example of how NaV1.3 inhibition activity is measured using the optical membrane potential method#2. Other subtypes are performed in an analogous mode in a cell line expressing the NaV of interest.
Patch clamp electrophysiology was used to assess the efficacy and selectivity of sodium channel blockers in dorsal root ganglion neurons. Rat neurons were isolated from the dorsal root ganglions and maintained in culture for 2 to 10 days in the presence of NGF (50 ng/ml) (culture media consisted of NeurobasalA supplemented with B27, glutamine and antibiotics). Small diameter neurons (nociceptors, 8-12 μm in diameter) have been visually identified and probed with fine tip glass electrodes connected to an amplifier (Axon Instruments). The “voltage clamp” mode has been used to assess the compound's IC50 holding the cells at −60 mV. In addition, the “current clamp” mode has been employed to test the efficacy of the compounds in blocking action potential generation in response to current injections. The results of these experiments have contributed to the definition of the efficacy profile of the compounds.
TTX-resistant sodium currents were recorded from DRG somata using the whole-cell variation of the patch clamp technique. Recordings were made at room temperature (˜22° C.) with thick walled borosilicate glass electrodes (WPI; resistance 3-4 MΩ) using an Axopatch 200B amplifier (Axon Instruments). After establishing the whole-cell configuration, approximately 15 minutes were allowed for the pipette solution to equilibrate within the cell before beginning recording. Currents were lowpass filtered between 2-5 kHz and digitally sampled at 10 kHz. Series resistance was compensated 60-70% and was monitored continuously throughout the experiment. The liquid junction potential (−7 mV) between the intracellular pipette solution and the external recording solution was not accounted for in the data analysis. Test solutions were applied to the cells with a gravity driven fast perfusion system (SF-77; Warner Instruments).
Dose-response relationships were determined in voltage clamp mode by repeatedly depolarizing the cell from the experiment specific holding potential to a test potential of +10 mV once every 60 seconds. […]

| Compound | IC50 [µM] |
| --- | --- |
| Oc1ccccc1-c1csc(N2CCCCC2)n1 [Compound 1] | 10 to 20 |
| CC(C)COC(=O)N1CCN(c2nc(-c3ccccc3O)cs2)CC1 [Compound 2] | > 20 |
| COc1ccccc1-c1csc(N2CCN(C(=O)OC(C)(C)C)CC2)n1 [Compound 3] | 10 to 20 |
| CCCCS(=O)(=O)N1CCN(c2nc(-c3ccccc3O)cs2)CC1 [Compound 4] | > 20 |
| O=C([C@@H]1CCCO1)N1CCN(c2nc(-c3ccccc3O)cs2)CC1 [Compound 5] | > 20 |
| CC(C)OC(=O)N1CCN(c2nc(-c3ccccc3O)cs2)CC1 [Compound 6] | > 20 |
| O=C(O[C@H]1CCOC1)N1CCN(c2nc(-c3ccccc3O)cs2)CC1 [Compound 7] | > 20 |
| COCCOC(=O)N1CCN(c2nc(-c3ccccc3O)cs2)CC1 [Compound 8] | > 20 |
| O=C(OCc1ccccc1)N1CCN(c2nc(-c3ccccc3F)cs2)CC1 [Compound 9, Benzyl 4-(4-(2-fluorophenyl)thiazol-2-yl)piperazine-1-carboxylate] | > 20 |
| CC(C)COC(=O)N1CCN(c2nc(-c3ccccc3F)cs2)CC1 [Compound 10, Isobutyl 4-(4-(2-fluorophenyl)thiazol-2-yl)piperazine-1-carboxylate] | > 20 |
| CC(C)(C)COC(=O)N1CCN(c2nc(-c3ccccc3F)cs2)CC1 [Compound 11] | > 20 |
| O=C(OC1CCOC1)N1CCN(c2nc(-c3ccccc3F)cs2)CC1 (stereo not shown) [Compound 12] | > 20 |
| COCCOC(=O)N1CCN(c2nc(-c3ccccc3F)cs2)CC1 [Compound 13] | > 20 |
| O=C([C@H]1CCCO1)N1CCN(c2nc(-c3ccccc3F)cs2)CC1 [Compound 14] | > 20 |
| CC(C)[C@@H](O)C(=O)NCC1CCN(c2nc(-c3ccccc3O)ns2)CC1 [Compound 15] | > 20 |
| CC(C)COC(=O)NC1CCN(c2nc(-c3ccccc3O)ns2)CC1 [Compound 16, Isobutyl 1-(3-(2-hydroxyphenyl)-1,2,4-thiadiazol-5-yl)piperidin-4-ylcarbamate] | > 20 |
| CC(C)COC(=O)N1CCN(c2nsc(-c3ccccc3O)n2)CC1 [Compound 17, Isobutyl 4-(5-(2-hydroxyphenyl)-1,2,4-thiadiazol-3-yl)piperazine-1-carboxylate] | > 20 |
